The text below walks through data of publication PMC2889835 (PLoS ONE, 2010).

“Also recorded” adds a separate entry of the source. Read-outs that look alike come from different tables or passages of the source. Starred links: 1 amine or outer side, 2 acyl side, 3 side chain; linkers in the order of their positions; H or OH if unused. Positions of bridges follow the written chain, without caps; N, C: chain ends. Non-standard residues stand in square brackets, D forms with d. Residues, ends and D or L forms follow the SMILES beside them. Chains are numbered I, II in the order given. Actinocin(9to1) = Cc1c2oc3c(C)ccc(C(=O)[*:1])c3nc-2c(C(=O)[*:2])c(N)c1=O; NMeV = CN[C@H](C(=O)O)C(C)C; Sar = CNCC(=O)O

Series [1] concerns RBV uptake. The format is cell-based.
Series [2] deals with VSV-GFP or SeV-GFP. The format is cell-based, vesicular stomatitis virus; Sendai virus.
Series [3] has as its system VSV-GFP. Briefly: microbe, parasite or virus in culture. The format is cell-based. The following applies: Vesicular stomatitis virus; for IC50: read-out: IC50 VSV-GFP; for IC90: read-out: IC90 VSV-GFP.
Series [4] has as its system SeV-GFP. Put plainly: microbe, parasite or virus in culture. The settings on record: Respirovirus muris; for IC50: read-out: IC50 SeV-GFP; for IC90: read-out: IC90 SeV-GFP. The class given is cell-based, Sendai virus.
Series [5] deals with VSV-GFP. The class given is cell-based, vesicular stomatitis virus.
For series [6], the system named is SeV-GFP. The class given is cell-based, Sendai virus.
The test system of series [7] is BHK21, BSRT7, HeLa, A549, 4T1, HEp2 and Vero cells.
Series [8] concerns canine distemper virus. The following applies: Vero cells; cited from earlier work.
The subject of series [9] is BHK21, BSRT7, HeLa, A549, 4T1, HEp2 and Vero cells. Put plainly: Cell viability assays (MTT, CellTiter-Glo, trypan blue dye exclusion). The following applies: RBV up to 1000 µM, 24 h, all seven cell lines. Background: Cellular ATP, detected with luciferase, serves as a proxy for viable cell number.
The test system of series [10] is VSV-GFP or SeV-GFP. The class given is cell-based, vesicular stomatitis virus; Sendai virus. This is another data set of the same source.
Series [11] deals with Vero, HepG2, MDCK and other cell lines. The following applies: cited from earlier work.

Turning to `Cc1c2oc3c(C)ccc(C(=O)N[C@@H]4C(=O)N[C@H](C(C)C)C(=O)N5CCC[C@H]5C(=O)N(C)CC(=O)N(C)[C@@H](C(C)C)C(=O)O[C@@H]4C)c3nc-2c(C(=O)N[C@@H]2C(=O)N[C@H](C(C)C)C(=O)N3CCC[C@H]3C(=O)N(C)CC(=O)N(C)[C@@H](C(C)C)C(=O)O[C@@H]2C)c(N)c1=O` [ActD, actinomycin D] (I: T[dV]P[Sar][NMeV] / II: T[dV]P[Sar][NMeV]; ester I:1-I:C, II:1-II:C; linker I:N-II:N via Actinocin(9to1)), the “Effect on RBV uptake” value in series [1] is given as “did not inhibit RBV uptake”. In series [2], the “Effect on viral replication when used alone” value is “somewhat mild effect on viral replication” and the “Neutralizing effect on antiviral activity of RBV” value was “clear neutralizing effect on RBV”.
Turning to `O=[N+]([O-])c1ccc(CSc2ncnc3c2ncn3[C@@H]2O[C@H](CO)[C@@H](O)[C@H]2O)cc1` [NBMPR, S-(4-Nitrobenzyl)-6-thioinosine], in series [1], the “Effect on RBV uptake” value was “RBV uptake was inhibited in most cell lines”.
In general, IC50 refers to the concentration that gives 50% inhibition. Usually IC90 stands for the point of the concentration-response curve where the effect stands at 90%. One may read the IC80 as the concentration needed for an effect of 80%. For `NC(=O)c1ncn([C@@H]2O[C@H](CO)[C@@H](O)[C@H]2O)n1` [RBV, 1-ß-D-ribofuranosyl-1,2,4-triazole-3-carboxamide], the half-inhibitory concentration (IC50) in series [3] (4T1, 24 h) is 20 µM; in series [3] (A549, 24 h), 190 µM; in series [3] (BHK-21, 24 h), 275 µM; in series [3] (BSR-T7, 24 h), 10 µM; in [3] (HEp-2, 24 h) it was 70 µM; in series [3] (HeLa, 24 h), 70 µM. Further, the IC50 in [3] (Vero, 24 h) came to 2250 µM; in [4] (4T1, 48 h), 10 µM; in [4] (A549, 48 h) it was 90 µM; in series [4] (BHK-21, 48 h), 190 µM; in [4] (BSR-T7, 48 h) it was 16 µM; in series [4] (HEp-2, 48 h), 12 µM. In addition, the IC50 in [4] (HeLa, 48 h) was 40 µM; in [4] (Vero, 48 h) it was 1550 µM; in [8] it was 20 to 50 µM. Besides, the IC90 in [3] (4T1, 24 h) was 60 µM; in series [3] (A549, 24 h) it was 610 µM; in series [3] (BHK-21, 24 h), 1100 µM; in series [3] (BSR-T7, 24 h), 40 µM; in [3] (HEp-2, 24 h) it was 310 µM; in series [3] (HeLa, 24 h) it was 150 µM. Moreover, the IC90 in series [3] (Vero, 24 h) is above 3000 µM; in series [4] (4T1, 48 h) it was 18 µM; in series [4] (A549, 48 h) it was 320 µM; in series [4] (BHK-21, 48 h), 850 µM; in [4] (BSR-T7, 48 h), 40 µM; in series [4] (HEp-2, 48 h), 45 µM. Besides, the IC90 in [4] (HeLa, 48 h) was 110 µM; in [4] (Vero, 48 h) it was above 3000 µM. In addition, the “Effect on VSV replication (GFP expression)” value in series [5] is on record as “effectively inhibited VSV”. The “Effect on VSV-driven GFP expression” value in [5] is reported as “surprisingly mild effect; also recorded: somewhat intermediate effect”. Besides, the “Effect on SeV replication compared with VSV” value in [6] is recorded as “inhibited SeV replication to a greater degree than VSV”. Besides, the “Long-term accumulation of RBV” value in series [7] is listed as “markedly decreased levels of RBV accumulation”. For the same molecule, the “Short-term RBV uptake” value in series [7] is recorded as “somewhat similar levels of RBV import”. In addition, the IC80 in series [8] is 40 to 110 µM. In addition, the “Effect on cell viability (cellular toxicity)” value in series [9] is recorded as “did not produce any statistically significant decrease in cell viability; also recorded: did not produce any significant cytotoxicity”.
Regarding `Nc1nc2c(ncn2[C@@H]2O[C@H](CO)[C@@H](O)[C@H]2O)c(=O)[nH]1` [guanosine], in series [10], the “Effect on virus replication when used alone” value is listed as “no significant effect on virus replication” and the “Neutralizing effect on antiviral activity of RBV” value was “clear (almost 100%) neutralizing effect on RBV”. Besides, the “Excess of physiological GTP levels” value in series [11] is on record as “at least 4 fold”.
